According to patent publication US12285407B2, “Bis-indolylmethane derivatives and uses thereof” (The University of The West Indies, priority 2018, dated 2025):

Assays:
[1] = test system: Candida albicans ATCC 22972; test: Broth microdilution MIC of SP-BIMs; assay type: cell-based; settings: ATCC22972, SP-BIM alone, read-out: MIC Candida albicans ATCC 22972
[2] = test system: Escherichia coli ATCC 35218; test: Broth microdilution MIC of SP-BIMs; assay type: cell-based; settings: ATCC35218, SP-BIM alone, read-out: MIC Escherichia coli ATCC 35218
[3] = test system: Enterococcus faecium ATCC 19434; test: Broth microdilution MIC of SP-BIMs; assay type: cell-based; settings: ATCC19434, SP-BIM alone, read-out: MIC Enterococcus faecium ATCC 19434
Gram-negative bacteria = test: Adjuvant broth microdilution; assay type: cell-based; settings: SP-BIM at 50 μg mL^−1
Method: To each well, the SP-BIM to be tested was added to a final concentration of 50 μg mL^−1. […] SP-BIMs were assessed as potential adjuvants based on their ability to reduce the MIC of the antibiotic against respective pathogen.

[4] = test system: Streptococcus pyogenes ATCC 19615; test: Broth microdilution MIC of SP-BIMs; assay type: cell-based; settings: ATCC19615, SP-BIM alone, read-out: MIC Streptococcus pyogenes ATCC 19615
[5] = In vivo acute toxicity (OECD guidelines); settings: one subcutaneous injection, 2000 mg/kg and 300 mg/kg; 14 days
[6] = test system: Bacillus cereus ATCC 14579; test: Broth microdilution MIC of SP-BIMs; assay type: cell-based; settings: ATCC14579, SP-BIM alone, read-out: MIC Bacillus cereus ATCC 14579

**Q.** With `Oc1cc(C(c2c[nH]c3ccccc23)c2c[nH]c3ccccc23)cc(O)c1O` [SP-BIM 13, 5-(di(1H-indol-3-yl)methyl)benzene-1,2,3-triol] as the compound, how does the MIC [1] read?
**A.** The MIC was 250 µg/mL.

**Q.** And the MIC [2]?
**A.** The MIC was over 250 µg/mL.

**Q.** And the MIC [3]?
**A.** Its MIC is 125 µg/mL.

**Q.** What about the “potentiating activity for Gram-negative bacteria” value (Gram-negative bacteria) of the same compound?
**A.** Its value is “No potentiating activity was observed”.

**Q.** And the MIC [4]?
**A.** Its MIC is 125 µg/mL.

**Q.** What about the mice deaths [5] of the same compound?
**A.** Its mice deaths is “no mice deaths were recorded”.

**Q.** And the “mice weight and appetite” value [5]?
**A.** The value was “did not significantly vary from the untreated mice”.

**Q.** And the MIC [6]?
**A.** Its MIC is 125 µg/mL.
